Values quoted from earlier work in patent US20070289889A1, “Biomarkers For The Prediction Of Drug-In Duced Diarrhea” (NOVARTIS AG, priority 2003, published 2007).

Details: anticancer drugs targeted to inhibit the cell cycle, literature; cited from earlier work

Q: With `CCc1c2c(nc3ccc(OC(=O)N4CCC(N5CCCCC5)CC4)cc13)-c1cc3c(c(=O)n1C2)COC(=O)[C@]3(O)CC` [CPT-11] as the compound, how does the drug-induced diarrhoea read?
A: Diarrhoea has been reported
